Laboratory results published in patent US20240408065A1, “CYANO COMPOUND, AND PREPARATION METHOD THEREFOR AND USE THEREOF” (SHANGHAI INSTITUTE OF MATERIA MEDICA, CHINESE ACADEMY OF …, priority 2021, published 2024).
Where “and” joins values, the source holds several entries; their conditions need not be identical. Equal entries are not always repeated.

Key:
[1] = target: T1, SARS-CoV-2 3CLpro (Severe acute respiratory syndrome coronavirus 2, UniProt P0DTD1); experiment: biochemical; details: protease 30 nM, substrate 20 μM
T1 construct: The SARS-CoV-2 3CL^pro protease and different concentrations of the compounds were added to a 96-well plate

[2] = in vitro; details: African green monkey
Procedure: In the cytotoxicity test, Vero E6 cells were digested and placed in a culture medium (90% DMEM, 10% fetal bovine serum), inoculated into a 96-well plate at 20000 cells per well, and cultured overnight. The compound to be tested was dissolved in DMSO to prepare a 40 mM stock solution, and further serially diluted with a culture medium or a culture medium containing 0.5 μM Pgp inhibitor to obtain the concentration required for the test.

[3] = system: SARS-CoV-2 delta strain; details: mouse, in vivo
[4] = system: SARS-CoV-2 Omicron strain (B.1.1.529); experiment: microbe, parasite or virus in culture; details: Severe acute respiratory syndrome coronavirus 2, Vero C1008
[5] = system: 47 safety-related targets; details: read-out: ECo on 47 safety-related targets
Source text: For the 78 tests related to the 47 safe targets, the experimental methods used include: cAMP assay, calcium flux assay, hormone nuclear receptor assay, kinase binding assay, enzyme activity assay, neurotransmitter transporter assay, ion channel assay, and transporter assay.

[6] = system: SARS-CoV-2 B.1.351 strain; experiment: microbe, parasite or virus in culture; details: Severe acute respiratory syndrome coronavirus 2, Vero C1008, 24 h
[7] = cynomolgus monkey, in vivo

Compound	IC50 [1] [nM]	other results
CC(C)(C)OC(=O)N[C@H](C(=O)N1CC2(C[C@H]1C(=O)N[C@H](C#N)C[C@@H]1CCNC1=O)SCCS2)C(C)(C)C [Compound 1]	< 100	
CC(C)(C)[C@H](NC(=O)C(F)(F)F)C(=O)N1CC2(C[C@H]1C(=O)N[C@H](C#N)C[C@@H]1CCNC1=O)SCCS2 [Compound 2]		CC50 [2]: > 500000 nM; Viral load, brain tissue, Day 2 [3]: 0.77 ± 0.20 log10 copies/mg and 1.04 ± 0.24 log10 copies/mg; Viral load, lung tissue, Day 4 [3]: 7.88 ± 0.74 log10 copies/g and 7.48 ± 0.63 log10 copies/g; body weight of the mice [3]: did not decrease significantly; decrease of virus copy number in the lung compared with the model group [3]: 2.4 log 10 copies/g; decrease of virus titer in the lung compared with the model group [3]: more than 3 log 10 PFU/g; effect on virus titer in the lung [3]: sustained inhibitory effect; histopathological analysis of the lung [3]: significantly improved lung damage; virus titer in the brain (plaque test) [3]: no virus titer was determined; virus titer in the lung (plaque test) [3]: no titer was detected; IC50 [4]: 120 nM; EC50 [5]: > 100000 nM; EC50 [6]: 730 nM; arrhythmia [7]: no arrhythmia related to the test product; change in the cardiovascular system [7]: no change in the cardiovascular system related to the test product; changes in ECG parameters or blood pressure [7]: no changes in ECG parameters or blood pressure related to the test product
CC(=O)N[C@H](C(=O)N1CC2(C[C@H]1C(=O)N[C@H](C#N)C[C@@H]1CCNC1=O)SCCS2)C(C)(C)C [Compound 3]	< 100	
CC(C)(C)[C@H](NC(=O)C1CC1)C(=O)N1CC2(C[C@H]1C(=O)N[C@H](C#N)C[C@@H]1CCNC1=O)SCCS2 [Compound 4]	< 100	
COC(=O)N[C@H](C(=O)N1CC2(C[C@H]1C(=O)N[C@H](C#N)C[C@@H]1CCNC1=O)SCCS2)C(C)(C)C [Compound 6]	100 to 1000	
CC(C)(C)[C@H](NC(=O)c1ccccc1)C(=O)N1CC2(C[C@H]1C(=O)N[C@H](C#N)C[C@@H]1CCNC1=O)SCCS2 [Compound 8]	1000 to 10000	
CC(C)(C)[C@H](NC(=O)c1cc(C(F)(F)F)cc(C(F)(F)F)c1)C(=O)N1CC2(C[C@H]1C(=O)N[C@H](C#N)C[C@@H]1CCNC1=O)SCCS2 [Compound 9]	1000 to 10000	
Cc1cc(C)cc(C(=O)N[C@H](C(=O)N2CC3(C[C@H]2C(=O)N[C@H](C#N)C[C@@H]2CCNC2=O)SCCS3)C(C)(C)C)c1 [Compound 10]	1000 to 10000	
CC(C)(C)[C@H](NC(=O)CC(F)(F)F)C(=O)N1CC2(C[C@H]1C(=O)N[C@H](C#N)C[C@@H]1CCNC1=O)SCCS2 [Compound 11]	100 to 1000	
CC(C)(C)[C@H](NC(=O)c1cccnc1)C(=O)N1CC2(C[C@H]1C(=O)N[C@H](C#N)C[C@@H]1CCNC1=O)SCCS2 [Compound 12]	1000 to 10000	
CC(C)(C)[C@H](NC(=O)C(F)(F)C(F)(F)F)C(=O)N1CC2(C[C@H]1C(=O)N[C@H](C#N)C[C@@H]1CCNC1=O)SCCS2 [Compound 13]	< 100	
N#C[C@H](C[C@@H]1CCNC1=O)NC(=O)[C@@H]1CC2(CN1C(=O)[C@@H](NC(=O)C(F)(F)F)C1CCCC1)SCCS2 [Compound 14]	< 100	
CC(C)(C)[C@H](NS(=O)(=O)c1ccccc1)C(=O)N1CC2(C[C@H]1C(=O)N[C@H](C#N)C[C@@H]1CCNC1=O)SCCS2 [Compound 17]	1000 to 10000	
CC(C)(C)[C@H](NC(=O)C(F)(F)F)C(=O)N1CC2(C[C@H]1C(=O)N[C@H](C#N)C[C@@H]1CCNC1=O)OCCO2 [Compound 18]	< 100	
CC(C)(C)[C@H](NC(=O)C(F)(F)F)C(=O)N1C[C@H](Sc2ccccc2)C[C@H]1C(=O)N[C@H](C#N)C[C@@H]1CCNC1=O [Compound 19]	1000 to 10000	
CC(C)(C)[C@H](NC(=O)c1c(F)c(F)c(F)c(F)c1F)C(=O)N1CC2(C[C@H]1C(=O)N[C@H](C#N)C[C@@H]1CCNC1=O)SCCS2 [Compound 20]	100 to 1000	
N#C[C@H](C[C@@H]1CCNC1=O)NC(=O)[C@@H]1CC2(CN1C(=O)[C@@H](NC(=O)C1(F)CC1)C1CCCC1)SCCS2 [Compound 21]	< 100	
CC(C)(C)[C@H](NC(=O)C(F)(F)C(F)(F)F)C(=O)N1CC2(C[C@H]1C(=O)N[C@H](C#N)C[C@@H]1CCCNC1=O)SCCS2 [Compound 22]	< 100	
N#C[C@H](C[C@@H]1CCNC1=O)NC(=O)[C@@H]1CC2(CN1C(=O)[C@@H](NC(=O)C(F)(F)F)C13CC4CC(CC(C4)C1)C3)SCCS2 [Compound 23]	< 100	
